Experiment [1] concerns rat brain and liver monoamine oxidase-A. Nature of the experiment: Monoamine oxidase-A-inhibiting activity ex vivo. Particulars: for % Inhibition Monoamine Oxidase-A: 7 days following injection, i.p., 10 mg/kg combined with DSP4 50 mg/kg; for effect on monoamine oxidase-A activity in the brain or liver: seven days after administration. It is filed as in vivo.
The test system of experiment [2] is noradrenaline uptake into rat hippocampal prisms. Nature of the experiment: Inhibition of noradrenaline uptake in vitro. Set-up: dose or concentration left out as unconfirmed. It is filed as cell-based. The method, then:
The ability of N-propargylphetermine and related derivatives to inhibit monoamine uptake was evaluated in vitro by examining the effects of said compounds on the uptake of radiolabeled noradrenaline and serotonin into fresh rat hippocampal and striatal prisms, respectively according to the method described in Martin et al., (1978). Animals were killed by decapitation and the hippocampus or striatum were removed and placed in ice cold incubation medium. Prisms were prepared using a tissue chopper, resuspended in 800 volumes of incubation medium containing 12.5 μM nialamide to inhibit amine metabolism and stored on ice until used. 0.8 ml of ice cold prism of suspension per test tube was used. Each test tube was pre-incubated for 5 minutes at 37° C. At this time each test tube was placed on ice and the appropriate drug solution or control was added. This was rapidly followed by the addition of the radiolabled amine (titrated noradrenaline or serotonin, 0.01 μM, specific activity about 13.5 Ci/mmol). The mixture was incubated for 10 minutes at 37° C. The incubations were then filtered and washed using a cell harvester and the radioactivity retained on the filters was measured using a scintillation counter. The percent inhibition of amine uptake compared to controls containing no drug was calculated. Reference: Maretin I. L., Baker G. B. and Mitchell, P. R. (1978). The effect of viloxaine hydrochloride on the transport of noradenaline, dopamine, 5-hydroxytryptamine and gamma-amino-butyric acid in rat brain tissue. Neuropharmacology 17:421-423.

The target in experiment [3] is T1, rat brain monoamine oxidase-B (Rattus norvegicus, UniProt P19643).
T1 construct: incubated in appropriately diluted homogenates of rat brain or liver; from tissue; host or cells: rat brain or liver homogenate
T1 sequence (P19643 1-520): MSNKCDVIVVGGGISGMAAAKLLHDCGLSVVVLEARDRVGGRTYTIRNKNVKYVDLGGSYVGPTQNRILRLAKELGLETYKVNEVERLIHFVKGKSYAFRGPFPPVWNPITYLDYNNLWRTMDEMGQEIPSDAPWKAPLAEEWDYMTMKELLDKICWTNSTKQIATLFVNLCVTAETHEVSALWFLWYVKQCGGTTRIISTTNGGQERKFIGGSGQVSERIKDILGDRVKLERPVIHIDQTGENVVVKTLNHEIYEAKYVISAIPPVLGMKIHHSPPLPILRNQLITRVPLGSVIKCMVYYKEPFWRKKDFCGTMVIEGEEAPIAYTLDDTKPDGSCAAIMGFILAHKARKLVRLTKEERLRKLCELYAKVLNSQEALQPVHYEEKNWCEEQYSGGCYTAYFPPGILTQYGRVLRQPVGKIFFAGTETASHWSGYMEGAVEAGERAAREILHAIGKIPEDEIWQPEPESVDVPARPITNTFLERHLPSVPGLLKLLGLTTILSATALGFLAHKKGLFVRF
As to the kind of experiment: Monoamine oxidase-B-inhibiting activity in vitro (radiochemical, β-phenylethylamine substrate). The format is biochemical. The method, then:
The compounds were evaluated for in vitro monoamine oxidase-B inhibiting activity using the radiochemical procedure of Lyles and Callingham (1982) employing radiolabeled β-phenylethylamine as substrate for monoamine oxidase-B. Various concentrations of the compounds of interest were incubated in appropriately diluted homogenates of rat brain or liver in a 0.2 M potassium phosphate buffer. Incubations proceeded at 37° C. for 10 minutes. Incubation was terminated by the addition of hydrochloric acid and the radiolabeled product (phenylacetic acid) was extracted and quantified by liquid scintillation counting procedures. […] The percent inhibition of monoamine oxidase-B activity compared to controls containing no drug was calculated. Reference: Lyles, G. A. and Callingham, B. A. (1982). In vitro and in vivo inhibition by benserazide of clorgyline-resistant amine exodiases in rat cardiovascular tissues. Biochem. Pharmacol, 31:1417-1424.

Experiment [4] deals with rat brain and liver monoamine oxidase-B. As to the kind of experiment: Monoamine oxidase-B-inhibiting activity ex vivo. The format is in vivo. As to conditions: for % Inhibition Monoamine Oxidase-B: 7 days following injection, i.p., combined with DSP4 50 mg/kg; for effect on monoamine oxidase-B activity in the brain or liver: seven days after administration. The method, then: The compounds were evaluated for ex vivo monoamine oxidase-B-inhibiting activity using the radiochemical procedure of Lyles and Callingham (1982) employing radiolabeled β-phenylethylamine as substrate for monoamine oxidase-B. The compounds of interest were injected intraperitoneally in water. Animals were killed by decapitation and the brains and livers immediately removed and frozen until assay for monoamine oxidase-B activity. Tissues were homogenized and appropriately diluted in buffer prior to incubation. Incubations proceeded at 37° C. for 10 minutes. Incubation was terminated by the addition of acid and the radiolabeled product (phenylacetic acid) was extracted and quantified by liquid scintillation counting procedures. […] The percent inhibition of monoamine oxidase-B activity compared to controls containing no drug was calculated. Reference: Lyles, G. A. and Callingham, B. A. (1982). […] Biochaem. Pharmacol. 31:1417-1424.
Neuroprotectant activity was evaluated by examining the prevention of DSP-4 induced noradrenaline depletion in mouse hippocampus as described previously (Yu et al., 1994). Briefly, mice were injected (i.p.) with either water or potential neuroprotectants (10 mg/kg in water). One hour later they were injected with either water or DSP-4 (50 mg/kg in water). One week later the mice were killed and the brains removed and the hippocampus dissected out. The hippocampus was frozen and saved for estimation of noradrenaline and other amine neurotransmitters and their metabolites (Sloley and Goldberg, 1991). The rest of the brain and the liver were frozen and retained for estimation of monoamine oxidase activities ex vivo as described earlier. […] 63:1820-1828. Sloley, B. D. and Goldberg J. I. (1991), Determination of y-glutamyl conjugates of monoamines by means of high-performance liquid chromatography with electrochemical detection and application to gastropod tissues, J. Chromatog. 567:49-56.

The subject of experiment [5] is DSP-4 induced noradrenaline depletion in mouse hippocampus. As to the kind of experiment: Prevention of DSP-4 neurotoxicity ex vivo (noradrenaline depletion). It is filed as in vivo. Particulars: 10 mg/kg i.p.; for % NA Restoration: then DSP-4 50 mg/kg one hour later, one week. The method, then: Neuroprotectant activity was evaluated by examining the prevention of DSP-4 induced noradrenaline depletion in mouse hippocampus as described previously (Yu et al., 1994). Briefly, mice were injected (i.p.) with either water or potential neuroprotectants (10 mg/kg in water). One hour later they were injected with either water or DSP-4 (50 mg/kg in water). One week later the mice were killed and the brains removed and the hippocampus dissected out. The hippocampus was frozen and saved for estimation of noradrenaline and other amine neurotransmitters and their metabolites (Sloley and Goldberg, 1991). The rest of the brain and the liver were frozen and retained for estimation of monoamine oxidase activities ex vivo as described earlier. […] References: Yu, P. H., Davis, B. A., Fang, J. and Boulton, A. A. (1994), Neuroprotective effect of some monoamine oxidase-B inhibitors against DSP-4 induced noradrenaline depletion in the mouse hippocampus, J. Neurochem. 63:1820-1828. Sloley, B. D. and Goldberg J. I. (1991), Determination of y-glutamyl conjugates of monoamines by means of high-performance liquid chromatography with electrochemical detection and application to gastropod tissues, J. Chromatog. 567:49-56.

In experiment [6] the test system is serotonin (5-HT) uptake into rat striatal prisms. Nature of the experiment: Inhibition of serotonin uptake in vitro. Set-up: dose or concentration left out as unconfirmed. The format is cell-based. The method, then:
Animals were killed by decapitation and the hippocampus or striatum were removed and placed in ice cold incubation medium. […] 0.8 ml of ice cold prism of suspension per test tube was used. Each test tube was pre-incubated for 5 minutes at 37° C. At this time each test tube was placed on ice and the appropriate drug solution or control was added. This was rapidly followed by the addition of the radiolabled amine (titrated noradrenaline or serotonin, 0.01 μM, specific activity about 13.5 Ci/mmol). The mixture was incubated for 10 minutes at 37° C. The incubations were then filtered and washed using a cell harvester and the radioactivity retained on the filters was measured using a scintillation counter. The percent inhibition of amine uptake compared to controls containing no drug was calculated. […] The effect of viloxaine hydrochloride on the transport of noradenaline, dopamine, 5-hydroxytryptamine and gamma-amino-butyric acid in rat brain tissue.

Experiment [7] concerns the target T2, rat brain monoamine oxidase-A (Rattus norvegicus, UniProt P21396).
T2 construct: incubated in appropriately diluted homogenates of rat brain or liver; from tissue; host or cells: rat brain or liver homogenate
T2 sequence (P21396 1-526): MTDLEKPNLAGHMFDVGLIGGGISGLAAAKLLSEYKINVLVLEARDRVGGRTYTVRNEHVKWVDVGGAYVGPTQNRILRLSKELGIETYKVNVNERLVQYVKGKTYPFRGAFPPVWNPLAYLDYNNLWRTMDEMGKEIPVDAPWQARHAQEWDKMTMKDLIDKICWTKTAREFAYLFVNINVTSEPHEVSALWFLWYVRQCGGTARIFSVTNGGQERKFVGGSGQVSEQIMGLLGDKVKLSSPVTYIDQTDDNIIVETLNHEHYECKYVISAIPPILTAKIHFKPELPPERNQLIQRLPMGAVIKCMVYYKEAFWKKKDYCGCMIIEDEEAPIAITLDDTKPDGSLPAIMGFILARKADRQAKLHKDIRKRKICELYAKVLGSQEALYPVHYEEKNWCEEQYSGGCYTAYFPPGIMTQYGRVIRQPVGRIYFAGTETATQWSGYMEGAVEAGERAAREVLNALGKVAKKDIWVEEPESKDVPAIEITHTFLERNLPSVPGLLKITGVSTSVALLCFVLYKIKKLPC
Nature of the experiment: Monoamine oxidase-A-inhibiting activity in vitro (radiochemical, 5-hydroxytryptamine substrate). It is filed as biochemical. The method, then:
The compounds were evaluated for in vitro monoamine oxidase-A-inhibiting activity using the radiochemical procedure of Lyles and Callingham (1982) employing radiolabeled 5-hydroxytryptamine as substrate for monoamine oxidase-A. Various concentrations of the compounds of interest were incubated in appropriately diluted homogenates of rat brain or liver in a 0.2 M potassium phosphate buffer. Incubations proceeded at 37° C. for 10 minutes. Incubation was terminated by the addition of acid and the radiolabeled product (5-hydroxyindoleacetic acid) was extracted and quantified by liquid scintillation counting procedures. […] The percent inhibition of monoamine oxidase-A activity compared to controls containing no drug was calculated.

Read-outs that look alike come from different tables or passages of the source.

Usually IC50 stands for the concentration that gives 50% inhibition. `C#CCNC(C)(C)Cc1ccc(Cl)cc1` [CVT-PP022, p-chloro-N-propargylphentermine]: the “% Inhibition Monoamine Oxidase-A” value in experiment [1] (brain) stood at 2.5 ± 5.2%; in experiment [1] (liver), 5.9 ± 4.1%. Besides, in experiment [1], the “effect on monoamine oxidase-A activity in the brain or liver” value was “did not significantly affect”. Besides, the “% inhibition NA uptake” value in experiment [2] came out at 93 ± 2%. The values for the IC50 in experiment [3] and in experiment [7] were 4 µM and 160 µM, respectively. For the same compound, the results for the “% Inhibition Monoamine Oxidase-B” value in experiment [4] (brain) and in experiment [4] (liver) were 17.5 ± 5.6% and 12.6 ± 5.3%, respectively. In experiment [4], the “effect on monoamine oxidase-B activity in the brain or liver” value was “did not significantly affect”. Further, the “protection against DSP-4-induced noradrenaline depletion” value in experiment [5] is recorded as “significantly protected”. Besides, the “% NA Restoration” value in experiment [5] (Table 6 experiment) was 70.5%. Besides, the “% inhibition 5-HT uptake” value in experiment [6] amounted to 89 ± 1%.

As for (−)-deprenyl [reference compound], the “% NA Restoration” value in experiment [5] (Table 5 experiment) is 97.2%; in experiment [5] (Table 6 experiment), 90.3%.

Consider `NNCCc1ccccc1` [phenelzine.H2SO4, phenelzine, reference compound], for which the IC50 in experiment [3] came to 26 µM; in experiment [7] (in vitro, rat brain homogenate, read-out: IC50 for inhibition of monoamine oxidase A), 130 µM.

On to `C#CCNC(C)(C)Cc1ccccc1` [CVT-PP019, N-propargylphentermine], for which the “% Inhibition Monoamine Oxidase-A” value in experiment [1] (brain) is listed as −16.4 ± 4.9%; in experiment [1] (liver), −20.1 ± 4.4%. Besides, the “effect on monoamine oxidase-A activity in the brain or liver” value in experiment [1] is reported as “did not significantly affect”. The “% inhibition NA uptake” value in experiment [2] is reported as 77 ± 3%. The IC50 in experiment [3] worked out at 5.7 µM; in experiment [7] it was 53 µM. The “% Inhibition Monoamine Oxidase-B” value in experiment [4] (brain) was −9.4 ± 3.0%; in experiment [4] (liver), −10.1 ± 6.6%. Moreover, the “effect on monoamine oxidase-B activity in the brain or liver” value in experiment [4] is recorded as “did not significantly affect”. Also, the “protection against DSP-4-induced noradrenaline depletion” value in experiment [5] is on record as “significantly protected”. Besides, the “% NA Restoration” value in experiment [5] (Table 5 experiment) turned out to be 114.6%. In experiment [6], the “% inhibition 5-HT uptake” value amounted to 68 ± 2%.

Consider `CNCCCN1c2ccccc2CCc2ccccc21` [Desipramine, reference compound], for which, in experiment [2], the “% inhibition NA uptake” value is 99 ± 3%.
